Where a name gives a salt, the structure may show the parent alone. A value given as a limit tells only on which side of the number the result lay.

One may read the IC50 as the midpoint of a concentration-inhibition curve. Broadly, the melting point is the temperature, or range, at which the solid turns liquid. As a reminder, the Cmax is the highest concentration seen after dosing. A word on the AUC: it is concentration integrated over time.

One data set deals with T1, p38 MAP kinase (Homo sapiens, UniProt Q16539).
T1 construct: made in house; host or cells: E. coli (co-expressed with SEK-1 and MEKK)
T1 sequence (Q16539 whole entry): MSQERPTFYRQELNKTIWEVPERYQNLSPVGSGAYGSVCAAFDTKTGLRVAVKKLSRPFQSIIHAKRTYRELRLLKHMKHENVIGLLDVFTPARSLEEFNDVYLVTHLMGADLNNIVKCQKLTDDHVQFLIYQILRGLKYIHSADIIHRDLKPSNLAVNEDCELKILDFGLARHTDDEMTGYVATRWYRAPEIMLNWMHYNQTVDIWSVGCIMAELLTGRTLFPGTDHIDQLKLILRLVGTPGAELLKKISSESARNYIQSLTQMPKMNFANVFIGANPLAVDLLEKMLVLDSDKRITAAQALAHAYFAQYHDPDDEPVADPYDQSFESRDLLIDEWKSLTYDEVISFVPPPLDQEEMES
Briefly: p38 (MAP) kinase in vitro assay, transfer of γ-33P from ATP to Myelin Basic Protein. The data set is classed as biochemical. Particulars: phosphorylated recombinant p38 MAP kinase, MBP substrate. The procedure:
The p38 MAP kinase inhibitory activity of compounds of this invention in vitro was determined by measuring the transfer of the γ-phosphate from γ-^33P-ATP by p-38 kinase to Myelin Basic Protein (MBP), using a minor modification of the method described in Ahn, et al., J. Biol. Chem. 266:4220-4227 (1991).
The phosphorylated form of the recombinant p38 MAP kinase was co-expressed with SEK-1 and MEKK in E. Coli (see, Khokhlatchev, et al., J. Biol. Chem. 272:11057-11062 (1997)) and then purified by affinity chromatography using a Nickel column.
The phosphorylated p38 MAP kinase was diluted in kinase buffer (20 mM 3-(N-morpholino)propanesulfonic acid, pH 7.2, 25 mM β-glycerol phosphate, 5 mM ethylene glycol-bis(beta-aminoethyl ether)-N,N,N′,N′-tetraacetic acid, 1 mM sodium ortho-vanadate, 1 mM dithiothreitol, 40 mM magnesium chloride). Test compound dissolved in DMSO or only DMSO (control) was added and the samples were incubated for 10 min at 30° C. The kinase reaction was initiated by the addition of a substrate cocktail containing MBP and γ-^33P-ATP. After incubating for an additional 20 min at 30° C., the reaction was terminated by adding 0.75% phosphoric acid. The phosphorylated MBP was then separated from the residual γ-^33P-ATP using a phosphocellulose membrane (Millipore, Bedfrod, Mass.) and quantitated using a scintillation counter (Packard, Meriden, Conn.).

A short description of data set [1]: Pharmacokinetic parameters in rats after oral administration of the phosphate prodrug (Example 6). Particulars: for Cmax / AUC: male, Crl:WI(GLx/BRL/Han)IGS BR (Hanover-Wistar), po, rat plasma; for Cmax: phosphate prodrug given orally (gavage, aqueous suspension). The format is in vivo. The source says: Male Crl:WI(GLx/BRL/Han)IGS BR (Hanover-Wistar) rats weighing 240-260 g were cannulated. Groups of three rats were used for each dose level of an experimental compound. One additional non-cannulated animal was included as vehicle control. Animals were allowed normal access to food and water throughout the experiment. The test substance phosphoric acid mono-{2-[3-(2-chloro-phenyl)-6-(2,4-difluoro-phenoxy)-1H-pyrazolo[3,4-d]pyrimidin-4-ylamino]-1-methyl-ethyl}ester was formulated as an aqueous suspension and a dose of 3 or 30 mg/kg (in 1-[3-(2-chloro-phenyl)-6-(2,4-difluoro-phenoxy)-1H-pyrazolo[3,4-d]pyrimidin-4-ylamino]-propan-2-ol equivalent) was administered orally through gavage. A blood sample (0.3 mL) was collected from the each treated rat at 0 (predose), 0.083, 0.25, 1, 2, 4, 6, and 8 hr after dose via the jugular cannula. At 24 hr after dosing, blood was collected from each treated rat via cardiac puncture. Blood was also collected from the untreated animal at 24 hr via cardiac puncture. Lithium heparin was added to the samples which were stored on ice during sampling procedure. The samples were spun in a refrigerated centrifuge at 4° C. as soon as possible and the plasma samples were stored −20° C. immediately after centrifugation and until analysis. The concentration of test compound was determined by HPLC-MS/MS. […] The prodrug phosphoric acid mono-{2-[3-(2-chloro-phenyl)-6-(2,4-difluoro-phenoxy)-1H-pyrazolo[3,4-d]pyrimidin-4-ylamino]-1-methyl-ethyl}ester was not detected in the rat plasma (at quantification limit of 0.0005 μg/mL) with the 3-mg/kg dose.

Data set [2] is described as follows: Pharmacokinetic parameters in rats after oral administration of the succinate prodrug (Example 7). Particulars: male, Crl:WI(GLx/BRL/Han)IGS BR (Hanover-Wistar), rat plasma; for Cmax: succinate prodrug given orally (gavage, aqueous suspension); for AUC: succinate prodrug given orally. The format is in vivo. The method, then:
Male Crl:WI(GLx/BRL/Han)IGS BR (Hanover-Wistar) rats weighing 240-260 g were cannulated. Groups of three rats were used for each dose level of an experimental compound. The test substance succinic acid mono-[3-(2-chloro-phenyl)-6-(2,4-difluoro-phenoxy)-4-(2-hydroxy-2-methyl-propylamino)-pyrazolo[3,4-d]pyrimidin-1-ylmethyl]ester was formulated as an aqueous suspension, and a dose of 3 or 10 mg/kg (in 1-[3-(2-Chloro-phenyl)-6-(2,4-difluoro-phenoxy)-1H-pyrazolo[3,4-d]pyrimidin-4-ylamino]-2-methyl-propan-2-ol equivalent) was administered orally through gavage. A blood sample (0.3 mL) was collected from the each treated rat at 0 (predose), 0.083, 0.25, 1, 2, 4, 6, and 8 h after dose via the jugular cannula. At 24 h after dosing, blood was collected from each treated rat via cardiac puncture. Lithium heparin was added to the samples which were stored on ice during sampling procedure. The samples were spun in a refrigerated centrifuge at 4° C. as soon as possible and the plasma samples were stored −20° C. immediately after centrifugation and until analysis. The concentration of test compound was determined by HPLC-MS/MS.

Setting [3] is: phosphate prodrug given orally, 30 mg/kg in parent equivalent.

As for `OCC(O)CNc1nc(Oc2ccc(F)cc2F)nc2[nH]nc(-c3ccccc3Cl)c12` (centres unmarked) [3-[3-(2-Chloro-phenyl)-6-(2,4-difluoro-phenoxy)-1H-pyrazolo[3,4-d]pyrimidin-4-ylamino]-propane-1,2-diol], the IC50 on p38 MAP kinase amounted to 4 nM.

`C[C@@H](CNc1nc(Oc2ccc(F)cc2F)nc2[nH]nc(-c3ccccc3Cl)c12)OP(=O)(O)O` (as salt: sodium) [phosphoric acid mono-{2-[3-(2-chloro-phenyl)-6-(2,4-difluoro-phenoxy)-1H-pyrazolo[3,4-d]pyrimidin-4-ylamino]-1-methyl-ethyl}ester]: the melting point is > 300 °C.

Turning to `C[C@@H](CNc1nc(Oc2ccc(F)cc2F)nc2[nH]nc(-c3ccccc3Cl)c12)OP(=O)(O)O` [phosphoric acid mono-{2-[3-(2-chloro-phenyl)-6-(2,4-difluoro-phenoxy)-1H-pyrazolo[3,4-d]pyrimidin-4-ylamino]-1-methyl-ethyl}ester], in data set [1] (30 mg/kg in parent equivalent), the Cmax is 214 ng/mL. Besides, the AUC in data set [1] (setting [3]) was determined as 188 ng·h/mL. Further, the “concentration in rat plasma (not detected at quantification limit)” value in data set [1] (phosphate prodrug given orally, 3 mg/kg dose) was < 0.5 ng/mL.

Regarding `CC(C)(O)CNc1nc(Oc2ccc(F)cc2F)nc2c1c(-c1ccccc1Cl)nn2COC(=O)CCC(=O)O` [Succinic acid mono-[3-(2-chloro-phenyl)-6-(2,4-difluoro-phenoxy)-4-(2-hydroxy-2-methyl-propylamino)-pyrazolo[3,4-d]pyrimidin-1-ylmethyl]ester], in data set [2] (3 mg/kg in parent equivalent), the Cmax is 1830 ng/mL and the AUC was determined as 6110 ng·h/mL. Besides, in data set [2] (10 mg/kg in parent equivalent), the Cmax turned out to be 9250 ng/mL and the AUC came to 20900 ng·h/mL.

Regarding `CC(C)(O)CNc1nc(Oc2ccc(F)cc2F)nc2[nH]nc(-c3ccccc3Cl)c12` [1-[3-(2-Chloro-phenyl)-6-(2,4-difluoro-phenoxy)-1H-pyrazolo[3,4-d]pyrimidin-4-ylamino]-2-methyl-propan-2-ol], in data set [2] (3 mg/kg in parent equivalent), the Cmax came to 1340 ng/mL and the AUC was determined as 9270 ng·h/mL. For the same compound, in data set [2] (10 mg/kg in parent equivalent), the Cmax came to 7050 ng/mL and the AUC is 47400 ng·h/mL.

Take `C[C@H](O)CNc1nc(Oc2ccc(F)cc2F)nc2[nH]nc(-c3ccccc3Cl)c12` [1-[3-(2-chloro-phenyl)-6-(2,4-difluoro-phenoxy)-1H-pyrazolo[3,4-d]pyrimidin-4-ylamino]-propan-2-ol]: the Cmax in data set [1] (3 mg/kg in parent equivalent) came to 1330 ng/mL; in data set [1] (30 mg/kg in parent equivalent) it was 9800 ng/mL. For the same compound, the AUC in data set [1] (phosphate prodrug given orally, 3 mg/kg in parent equivalent) stood at 12600 ng·h/mL; in data set [1] (setting [3]), 124000 ng·h/mL.

The values are drawn from US7608603B2, “Substituted pyrazolo[3,4-D]pyrimidines as p38 MAP kinase inhibitors” (Roche Palo Alto LLC, priority 2005, dated 2009).
